B1: CP4-12: dsRNA trigger, 82-462 of SEQ ID NO:1 (CP4 EPSPS), a 381 polynucleotide (nucleic acid, listed as Agrobacterium tumefaciens)
DNA: ATCTCCCACCGGTCCTTCATGTTCGGCGGTCTCGCGAGCGGTGAAACGCGCATCACCGGCCTTCTGGAAGGCGAGGACGTCATCAATACGGGCAAGGCCATGCAGGCCATGGGCGCCAGGATCCGTAAGGAAGGCGACACCTGGATCATCGATGGCGTCGGCAATGGCGGCCTCCTGGCGCCTGAGGCGCCGCTCGATTTCGGCAATGCCGCCACGGGCTGCCGCCTGACCATGGGCCTCGTCGGGGTCTACGATTTCGACAGCACCTTCATCGGCGACGCCTCGCTCACAAAGCGCCCGATGGGCCGCGTGTTGAACCCGCTGCGCGAAATGGGCGTGCAGGTGAAATCGGAAGACGGTGACCGTCTTCCCGTTACCTTG
modifications: dsRNA form
B2: CP4-34: dsRNA trigger, 594-1043 of SEQ ID NO:1 (CP4 EPSPS), a 450 polynucleotide (nucleic acid, listed as Agrobacterium tumefaciens)
DNA: CGATCATACGGAAAAGATGCTGCAGGGCTTTGGCGCCAACCTTACCGTCGAGACGGATGCGGACGGCGTGCGCACCATCCGCCTGGAAGGCCGCGGCAAGCTCACCGGCCAAGTCATCGACGTGCCGGGCGACCCGTCCTCGACGGCCTTCCCGCTGGTTGCGGCCCTGCTTGTTCCGGGCTCCGACGTCACCATCCTCAACGTGCTGATGAACCCCACCCGCACCGGCCTCATCCTGACGCTGCAGGAAATGGGCGCCGACATCGAAGTCATCAACCCGCGCCTTGCCGGCGGCGAAGACGTGGCGGACCTGCGCGTTCGCTCCTCCACGCTGAAGGGCGTCACGGTGCCGGAAGACCGCGCGCCTTCGATGATCGACGAATATCCGATTCTCGCTGTCGCCGCCGCCTTCGCGGAAGGGGCGACCGTGATGAACGGTCTGGAAGAACT
modifications: dsRNA form

test system: Amaranthus palmeri plants (glyphosate-resistant Palmer amaranth, “R-22”); assay: Topical trigger oligonucleotide bioassay with glyphosate on Amaranthus palmeri; format: in vivo; parameters: key: relative measure of activity, the tested oligonucleotide was either active, less active, or inactive in the bioassay; relative measure of activity, the tested oligonucleotide was either active, less active, or inactive in the bioassay; relative measure of activity, the tested oligonucleotide was either active, less active, or inactive in the bioassay; details: 5.2 triggers to A. palmeri EPSPS coding sequence; topical application with Silwet L-77, glyphosate; relative measure of activity

Molecule | Activity
AATGCCAGATGTTGCTATGAC (AATGCCAGATGTTGCTATGAC; antisense; DNA, backbone and methylation of C not given here; 5.2-DNA-wt is double-stranded DNA) [Oligo 5.2-ssDNA-S, ssDNA 21-mer, sense] | less active
ATA GCA ACA TCT GGC ATT [5.2-RNA-5′-18] | inactive
C ATA GCA ACA TCT GGC ATT [5.2-RNA-5′-19] | less active
GTCATAGCAACATCTGGCATT [5.2-DNA-wt] (GTCATAGCAACATCTGGCATT; DNA, backbone and methylation of C not given here; 5.2-DNA-wt is double-stranded DNA) [Oligo 5.2-DNA-wt, dsDNA 21-mer] | active
GTCATAGCAACATCTGGCATT [5.2-asDNA/sRNA] (GTCATAGCAACATCTGGCATT; chemistry not fully specified) [DNA/RNA hybrid 21-mer] | inactive
GTCATAGCAACATCTGGCATT [5.2-sDNA/asRNA] (GTCATAGCAACATCTGGCATT; RNA, backbone and T or U not given here; hybrid: sense DNA strand with antisense RNA strand) [DNA/RNA hybrid 21-mer] | inactive
GTCATAGCAACATCTGGCATT [5.2-ssDNA-AS] (GTCATAGCAACATCTGGCATT; antisense; DNA, backbone and methylation of C not given here; 5.2-DNA-wt is double-stranded DNA) [Oligo 5.2-ssDNA-AS, ssDNA 21-mer, antisense] | less active
GTCATAGCAACATCTGGCATT [Oligo 5.2-RNA-wt] | active
GTCATAGCAACATCTGGCATT-3′IdT [5.2-RNA-3′IdT] | inactive
GTCATAGCAACATCTGGCATT-3′ddC [5.2-RNA-3′ddC] | inactive
GTC Aat GCA ACA TCT GGC ATT [Oligo 5.2-RNA-M5] | active
TC ATA GCA ACA TCT GGC ATT [5.2-RNA-5′-20] | active

same assay, conditions: AS83 made as ssDNA, dsRNA, dsDNA; making Palmer R-22 plant sensitive to glyphosate

Molecule | Activity
CTCTTTGTTTTTCTTCTGCCAATTT (CTCTTTGTTTTTCTTCTGCCAATTT; chemistry not fully specified) [AS83-DNA-blunt, dsDNA 25-mer] | active
CUCUUUGUUUUUCUUCUGCCAAUUU (CUCUUUGUUUUUCUUCUGCCAAUUU; RNA, backbone not given here; further chemistry not fully specified; listed as Amaranthus palmeri) [AS83-RNA-wt-] | active

same assay, conditions: AS83 triggers to EPSPS promoter of glyphosate resistant A. palmeri; 3′/5′ deletions, mismatch mutations; relative measure of activity

Molecule | Activity
CTC TTT GTT TTT CTT CT (CTCTTTGTTTTTCTTCT; DNA, backbone and methylation of C not given here) [AS83-DNA-17-3′D, ssDNA 17-mer] | inactive
CTC TTT GTT TTT CTT CTG (CTCTTTGTTTTTCTTCTG; DNA, backbone and methylation of C not given here) [AS83-DNA-18-3′D, ssDNA 18-mer] | inactive
CTC TTT GTT TTT CTT CTG C (CTCTTTGTTTTTCTTCTGC; DNA, backbone and methylation of C not given here) [AS83-DNA-19-3′D, ssDNA 19-mer] | inactive
CTCTTTGTTTTTCTTCTGCC (CTCTTTGTTTTTCTTCTGCC; DNA, backbone and methylation of C not given here) [AS83-DNA-20-3′D, ssDNA 20-mer] | active
CTCTTTGTTTTTCTTCTGCCA (CTCTTTGTTTTTCTTCTGCCA; chemistry not given here) [AS83-DNA-21-3′D, ssDNA 21-mer] | active
CTCTTTGTTTTTCTTCTGCCAA (CTCTTTGTTTTTCTTCTGCCAA; chemistry not given here) [AS83-DNA-22-3′D, ssDNA 22-mer] | active
CTCTTTGTTTTTCTTCTGCCAAT (CTCTTTGTTTTTCTTCTGCCAAT; chemistry not given here) [AS83-DNA-23-3′D, ssDNA 23-mer] | active
CTCTTTGTTTTTCTTCTGCCAATT (CTCTTTGTTTTTCTTCTGCCAATT; chemistry not given here) [AS83-DNA-24-3′D, ssDNA 24-mer] | active
CTCTTTGTTTTTCTTCTGCCAATTT (antisense CTCTTTGTTTTTCTTCTGCCAATTT; DNA, backbone and methylation of C not given here; listed as Amaranthus palmeri) [AS83-DNA-25-wt] | active
CTCTTTGTTTTTCTTCTGCCAATTT-3′InvdT [AS83-DNA-3′InvdT] | inactive
CTCTTTGTTTTTCTTCTGCCAATTT-3′ddC [AS83-DNA-3′ddC] | inactive
CTTTGTTTTTCTTCTGCCAATTT (CTTTGTTTTTCTTCTGCCAATTT; chemistry not given here) [AS83-DNA-23-5′D, ssDNA 23-mer] | active
TCTTTGTTTTTCTTCTGCCAATTT (TCTTTGTTTTTCTTCTGCCAATTT; chemistry not given here) [AS83-DNA-24-5′D, ssDNA 24-mer] | active
TTG TTT TTC TTC TGC CA (TTGTTTTTCTTCTGCCA; DNA, backbone and methylation of C not given here) [AS83-DNA-17-5′D, ssDNA 17-mer] | inactive
TTG TTT TTC TTC TGC CAA (TTGTTTTTCTTCTGCCAA; DNA, backbone and methylation of C not given here) [AS83-DNA-18-5′D, ssDNA 18-mer] | inactive
TTG TTT TTC TTC TGC CAA T (TTGTTTTTCTTCTGCCAAT; DNA, backbone and methylation of C not given here) [AS83-DNA-19-5′D, ssDNA 19-mer] | less active
TTGTTTTTCTTCTGCCAATT (TTGTTTTTCTTCTGCCAATT; chemistry not given here) [AS83-DNA-20-5′D, ssDNA 20-mer] | active
TTGTTTTTCTTCTGCCAATTT (TTGTTTTTCTTCTGCCAATTT; chemistry not given here) [AS83-DNA-21-5′D, ssDNA 21-mer] | active
TTTGTTTTTCTTCTGCCAATTT (TTTGTTTTTCTTCTGCCAATTT; chemistry not given here) [AS83-DNA-22-5′D, ssDNA 22-mer] | active

test system: A. palmeri (R-22); assay: Greenhouse test: 2,4-D, glyphosate and trigger polynucleotides; format: in vivo; details: 2,4-D 0.0625 lb/A; RU Wmax 1.5 lb/A where included; 14 days after treatment

Molecule | % Control (mean) [%]
CNC.O=C(O)COc1ccc(Cl)cc1Cl [2,4-D, 2,4D amine (dimethylamine salt)] | 60

same assay, conditions: 2,4-D 0.125 lb/A; RU Wmax 1.5 lb/A where included; 14 days after treatment

Molecule | % Control (mean) [%]
CNC.O=C(O)COc1ccc(Cl)cc1Cl [2,4-D, 2,4D amine (dimethylamine salt)] | 80.8

test system: Corn plants transformed with the CP4 EPSPS gene; assay: CP4 EPSPS dsRNA triggers plus RoundUp Ultra on transgenic glyphosate tolerant corn; details: trigger 210, 630, 1890 pmol; RoundUp Ultra 1.5 a.e. lb/acre two-three days later; FIG. 2
Procedure: Corn and cotton plants that were transformed with the CP4 EPSPS gene and are resistant to glyphosate were planted in pots in a greenhouse along with negative isolines for each and grown to the first true leaf emergence stage then treated with a trigger solution containing 0.5% Silwet L77, 2% ammonium sulfate, 20 mM Na Phoshpate (pH 6.8) at different rates of trigger amount, 0 picomoles (pmol), 210 pmol, 630 pmol and 1890 pmol. For each replication (8-10 plants), two fully expanded cotyledons were treated by pipette with 50 microliters of trigger solution each, then sprayed two-three days later with 1.5 a.e.lb/acre) of RoundUp™ Ultra (glyphosate, Monsanto, St Louis, Mo.). The cotton and corn plants were scored for stunting and injury 7-16 days after spray treatment.

Molecule | glyphosate injury of corn plants
B1 | dead or damaged terminal leaves
B2 | dead or damaged terminal leaves
